Reference: the supplement of paper PMC11451515

What was measured:
Settings in all cases: 48 h
[1] = system: SEM cells; test: cell viability relative to DMSO control; higher = less cytotoxic
Outline: (§1)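 Library compounds in DMSO were pin-dosed in an 11-point threefold series (47 μM to 0.79 nM) onto leukemia cells in 1536-well plates (5 μl). Plates held 500 cells/well of NOMO1 or SEM or 1000 cells/well of P12-Ichikawa, each adapted for at least four passages in each medium. Luminescence was read with CellTiter-Glo One after 48 h at 37°C. Viability means the per-plate percentage relative to DMSO wells, using cell-free wells as background.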

[2] = system: NOMO1; test: as above
Outline: as §1

[3] = system: P12-Ichikawa; test: as above
Outline: as §1

[4] = system: SEM cells; test: AUC of viability dose-response curve (% viability x log10 dose units); higher = less sensitive
Outline: (§2)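 Medium-adapted leukemia cells in 1536-well plates, at 500 or 1000 cells/well, were incubated for 48 h at 37°C with library compounds in DMSO at 11 threefold doses from 47 μM to 0.79 nM. CellTiter-Glo One luminescence normalised per plate to DMSO and cell-free wells was fitted with a four-parameter log-logistic model over log10 doses. Area under the curve was integrated from this fit by trapezoidal rule, with curves beyond full viability scaled and failed quality-control curves removed.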

[5] = system: NOMO1; test: as above
Outline: as §2

[6] = system: P12-Ichikawa; test: as above
Outline: as §2

CCOC(=O)C(C)OC1=CC=CC2=C1\C=C/N(CC(=O)NC3=CC=C4OCCOC4=C3)C2=O (configuration not stated)
cell viability [%]
Settings | [1] | [2] | [3]
HPLM + 10% dialyzed FBS, 0.000781 µM | 77.7 | 82.7 | 89.3
HPLM + 10% dialyzed FBS, 0.00234 µM | 85.4 | 96.6 | 97.6
HPLM + 10% dialyzed FBS, 0.00702 µM | 92.1 | 94.4 | 97.9
HPLM + 10% dialyzed FBS, 0.0211 µM | 93 | 97.2 | 53.9
HPLM + 10% dialyzed FBS, 0.0632 µM | 102 | 90.8 | 101
HPLM + 10% dialyzed FBS, 0.19 µM | 92.3 | 98.5 | 106
HPLM + 10% dialyzed FBS, 0.569 µM | 92.4 | 99.8 | 95.5
HPLM + 10% dialyzed FBS, 1.71 µM | 97.4 | 94.7 | 97.5
HPLM + 10% dialyzed FBS, 5.12 µM | 103 | 80.5 | 90.5
HPLM + 10% dialyzed FBS, 15.4 µM | 100 | 81.8 | 101
HPLM + 10% dialyzed FBS, 46.1 µM | 102 | 97.2 | 108
RPMI 5 mM glucose + 10% FBS, 0.000781 µM | 80.1 | 81.7 | 89.6
RPMI 5 mM glucose + 10% FBS, 0.00234 µM | 87.8 | 89.4 | 97.6
RPMI 5 mM glucose + 10% FBS, 0.00702 µM | 88 | 101 | 97.9
RPMI 5 mM glucose + 10% FBS, 0.0211 µM | 88 | 96.8 | 91.7
RPMI 5 mM glucose + 10% FBS, 0.0632 µM | 93.2 | 91 | 98.6
RPMI 5 mM glucose + 10% FBS, 0.19 µM | 90.2 | 88.8 | 103
RPMI 5 mM glucose + 10% FBS, 0.569 µM | 93.5 | 96.7 | 103
RPMI 5 mM glucose + 10% FBS, 1.71 µM | 95 | 87.8 | 91.2
RPMI 5 mM glucose + 10% FBS, 5.12 µM | 109 | 89.4 | 87.2
RPMI 5 mM glucose + 10% FBS, 15.4 µM | 98.1 | 89.5 | 111
RPMI 5 mM glucose + 10% FBS, 46.1 µM | 92.6 | 87.5 | 108
RPMI 5 mM glucose + 10% dialyzed FBS, 0.000781 µM | 90.1 | 92.3 | 88.6
RPMI 5 mM glucose + 10% dialyzed FBS, 0.00234 µM | 94.9 | 89.8 | 88.2
RPMI 5 mM glucose + 10% dialyzed FBS, 0.00702 µM | 102 | 98.2 | 91.5
RPMI 5 mM glucose + 10% dialyzed FBS, 0.0211 µM | 89 | 92.2 | 88.5
RPMI 5 mM glucose + 10% dialyzed FBS, 0.0632 µM | 85.4 | 94.6 | 85.7
RPMI 5 mM glucose + 10% dialyzed FBS, 0.19 µM | 98 | 92.3 | 98.2
RPMI 5 mM glucose + 10% dialyzed FBS, 0.569 µM | 99.2 | 94.9 | 92.2
RPMI 5 mM glucose + 10% dialyzed FBS, 1.71 µM | 104 | 88.8 | 89.8
RPMI 5 mM glucose + 10% dialyzed FBS, 5.12 µM | 99.1 | 74.6 | 90.4
RPMI 5 mM glucose + 10% dialyzed FBS, 15.4 µM | 88.2 | 91.9 | 92.5
RPMI 5 mM glucose + 10% dialyzed FBS, 46.1 µM | 112 | 109 | 101

AUC of viability dose-response curve
Settings | [4] | [5] | [6]
HPLM + 10% dialyzed FBS | 453 | 441 | 442
RPMI 5 mM glucose + 10% FBS | 441 | 434 | 452
RPMI 5 mM glucose + 10% dialyzed FBS | 443 | 442 | 436

Cc1ccccc1C(=O)Nc1ccc(C(=O)N2CCCC(O)c3cc(Cl)ccc32)c(C)c1 (configuration not stated)
cell viability [%]
Settings | [1] | [2] | [3]
HPLM + 10% dialyzed FBS, 0.000781 µM | 109 | 129 | 116
HPLM + 10% dialyzed FBS, 0.00234 µM | 97.2 | 125 | 117
HPLM + 10% dialyzed FBS, 0.00702 µM | 97.9 | 123 | 120
HPLM + 10% dialyzed FBS, 0.0211 µM | 112 | 141 | 122
HPLM + 10% dialyzed FBS, 0.0632 µM | 113 | 139 | 127
HPLM + 10% dialyzed FBS, 0.19 µM | 117 | 121 | 135
HPLM + 10% dialyzed FBS, 0.569 µM | 131 | 143 | 131
HPLM + 10% dialyzed FBS, 1.71 µM | 42.2 | 163 | 136
HPLM + 10% dialyzed FBS, 5.12 µM | 108 | 147 | 129
HPLM + 10% dialyzed FBS, 15.4 µM | 127 | 125 | 127
HPLM + 10% dialyzed FBS, 46.1 µM | 121 | 137 | 124
RPMI 5 mM glucose + 10% FBS, 0.000781 µM | 122 | – | –
RPMI 5 mM glucose + 10% FBS, 0.00234 µM | 109 | – | –
RPMI 5 mM glucose + 10% FBS, 0.00702 µM | 123 | – | –
RPMI 5 mM glucose + 10% FBS, 0.0211 µM | 136 | – | –
RPMI 5 mM glucose + 10% FBS, 0.0632 µM | 141 | – | –
RPMI 5 mM glucose + 10% FBS, 0.19 µM | 127 | – | –
RPMI 5 mM glucose + 10% FBS, 0.569 µM | 137 | – | –
RPMI 5 mM glucose + 10% FBS, 1.71 µM | 32.9 | – | –
RPMI 5 mM glucose + 10% FBS, 5.12 µM | 140 | – | –
RPMI 5 mM glucose + 10% FBS, 15.4 µM | 151 | – | –
RPMI 5 mM glucose + 10% FBS, 46.1 µM | 146 | – | –
RPMI 5 mM glucose + 10% dialyzed FBS, 0.000781 µM | 103 | – | –
RPMI 5 mM glucose + 10% dialyzed FBS, 0.00234 µM | 116 | – | –
RPMI 5 mM glucose + 10% dialyzed FBS, 0.00702 µM | 112 | – | –
RPMI 5 mM glucose + 10% dialyzed FBS, 0.0211 µM | 140 | – | –
RPMI 5 mM glucose + 10% dialyzed FBS, 0.0632 µM | 132 | – | –
RPMI 5 mM glucose + 10% dialyzed FBS, 0.19 µM | 136 | – | –
RPMI 5 mM glucose + 10% dialyzed FBS, 0.569 µM | 149 | – | –
RPMI 5 mM glucose + 10% dialyzed FBS, 1.71 µM | 56.3 | – | –
RPMI 5 mM glucose + 10% dialyzed FBS, 5.12 µM | 146 | – | –
RPMI 5 mM glucose + 10% dialyzed FBS, 15.4 µM | 140 | – | –
RPMI 5 mM glucose + 10% dialyzed FBS, 46.1 µM | 133 | – | –

AUC of viability dose-response curve
Settings | [4] | [5] | [6]
HPLM + 10% dialyzed FBS | 460 | 452 | 461
RPMI 5 mM glucose + 10% FBS | 455 | 471 | 462
RPMI 5 mM glucose + 10% dialyzed FBS | 446 | 471 | 469
